{
  "source": "paper PMC4807944",
  "about": "(International Journal of Nanomedicine, 2016)",
  "origin": "cited, not measured here",
  "data": [
    {"smiles": "C=CC[C@@H]1/C=C(\\C)C[C@H](C)C[C@H](OC)[C@H]2O[C@@](O)(C(=O)C(=O)N3CCCC[C@H]3C(=O)O[C@H](/C(C)=C/[C@@H]3CC[C@@H](O)[C@H](OC)C3)[C@H](C)[C@@H](O)CC1=O)[C@H](C)C[C@@H]2OC", "note": "[FK506, Tacrolimus]", "values": [
      {"measurement": "Aqueous solubility", "result": "1 to 2", "unit": "µg/mL"}
    ]}
  ]
}
